Data: ChEMBL document CHEMBL1687704, “Benzimidazole-2-pyrazole HIF Prolyl 4-Hydroxylase Inhibitors as Oral Erythropoietin Secretagogues” (ACS Med Chem Lett, 2010)

Experiments:
[1] = Plasma concentration in Balb-C mouse at 100 umol/kg, po after 1 hr; assay type: ADME, organism-based
[2] = Plasma concentration in Balb-C mouse at 100 umol/kg, po after 6 hrs; assay type: ADME, organism-based

- concentration at 1 h [1]: 14 µM
- concentration at 6 h [2]: 0.1 µM
SMILES: O=C(O)c1cnn(-c2nc3cc(C(F)(F)F)c(F)cc3[nH]2)c1
